Test results: PMC4794675, “Generation and Characterization of Monoclonal Antibodies against a Cyclic Variant of Hepatitis C Virus E2 Epitope 412-422” (Journal of Virology, 2016)
Bridge positions count the residues as written; N and C are the ends. Peptide text beside a SMILES is read from it.

System: Fab C2
Test: SPR epitope mapping: binding of epitope I peptide variants to immobilized Fab C2
Parameters: species or system mouse; Ka, binding to Fab C2: unit not given here
Settings: for Ka, binding to Fab C2 / Kd, binding to Fab C2: Fab C2 immobilized on CM5 chip, 25°C; for Kd: read-out: KD, binding to Fab C2, Fab C2 immobilized on CM5 chip, peptides 125 nM to 5 μM, HBS buffer, 25°C, NB = no binding
Method: All SPR analyses were performed on a Biacore 3000 instrument from GE Healthcare, using CM5 sensor chips and the HBS buffer certified for use with this instrument (20 mM HEPES, 0.15 M NaCl, pH 7.2, 0.005% polysorbate 20), at 25°C. Immobilization was carried out by means of the canonical amine-coupling chemistry using the surface immobilization wizard procedure operating at 5 μl/min. Channels were activated with a mixture of 1-ethyl-3-(3-dimethylaminopropyl)-carbodiimide and N-hydroxysuccinimide for 7 min; then, the ligand, which had been appropriately diluted in the preselected sodium acetate buffer, was coupled until a typical level of 500 to 600 response units (RU) was achieved. The remaining active ester groups were blocked with 1 M ethanolamine HCl, pH 8.5. […] The same procedure was applied to prepare an sE2-functionalized sensor chip. An IgG1 isotype-matched antibody was used as a negative control at a concentration of 5.0 μM. […] An underivatized surface was prepared on every sensor chip and used as a blank control. All analyses were carried out at a flow rate of 20 μl/min, and a constant volume of 60 μl of protein or peptide solution appropriately diluted in the HBS running buffer was injected.
For every analysis, experimental sensorgrams were aligned, the blank signal was subtracted, and the sensorgrams were overlapped. All mathematical manipulations and fitting of the data were performed using BIAevaluation (version 4.1) software (GE Healthcare).
To further investigate which peptide residues were mostly involved in the binding with the antibodies, we designed and prepared a panel of alanine-mutated cyclic peptides (Table 4). […] All peptides were tested at concentrations ranging from 125 nM to 5 μM.

Structure (SMILES)	Ka, binding to Fab C2 (peptides 125 nM to 5 μM)	Kd, binding to Fab C2 (peptides 125 nM to 5 μM) [M⁻¹ s⁻¹]	affinity/binding to Fab C2 relative to wild type (Fab C2 immobilized, peptides 125 nM to 5 μM)	Kd [µM]
CC[C@H](C)[C@@H]1NC(=O)[C@H](Cc2c[nH]cn2)NC(=O)[C@H](Cc2c[nH]c3ccccc23)NC(=O)[C@H](CCC(=O)O)NC(=O)[C@H](CCC(=O)O)NC(=O)[C@H](CC(N)=O)NC(=O)[C@H]([C@@H](C)O)NC(=O)[C@H](CC(N)=O)NC(=O)[C@H]([C@@H](C)CC)NC(=O)[C@H](CC(C)C)NC(=O)[C@H](CCC(N)=O)NC(=O)[C@@H](NC(=O)[C@H](CCCCN)NC(=O)[C@H](CCCCN)NC(C)=O)CSSC[C@@H](C(N)=O)NC1=O [C-epitope I mutant III] (Ac-KKCQLINTNEEWHIC-NH2; disulfide 3-15; N-terminus and C-terminus assumed)	16200 s⁻¹	0.0754	–	–
CC[C@H](C)[C@@H]1NC(=O)[C@H](CC(C)C)NC(=O)[C@H](CCC(N)=O)NC(=O)[C@@H](NC(=O)[C@H](CCCCN)NC(=O)[C@H](CCCCN)NC(C)=O)CSSC[C@@H](C(N)=O)NC(=O)[C@H]([C@@H](C)CC)NC(=O)[C@H](Cc2c[nH]cn2)NC(=O)[C@H](Cc2c[nH]c3ccccc23)NC(=O)[C@H](CO)NC(=O)CNC(=O)[C@H](C)NC(=O)[C@H](C)NC(=O)[C@H](C)NC1=O [C-epitope I mutant II] (Ac-KKCQLIAAAGSWHIC-NH2; disulfide 3-15; N-terminus and C-terminus assumed)	3200 s⁻¹	4.73e-05	–	–
CC[C@H](C)[C@@H]1NC(=O)[C@H](CC(C)C)NC(=O)[C@H](CCC(N)=O)NC(=O)[C@@H](NC(=O)[C@H](CCCCN)NC(=O)[C@H](CCCCN)NC(C)=O)CSSC[C@@H](C(N)=O)NC(=O)[C@H](C)NC(=O)[C@H](C)NC(=O)[C@H](C)NC(=O)[C@H](CO)NC(=O)CNC(=O)[C@H](CC(N)=O)NC(=O)[C@H]([C@@H](C)O)NC(=O)[C@H](CC(N)=O)NC1=O [C-epitope I mutant IV] (Ac-KKCQLINTNGSAAAC-NH2; disulfide 3-15; N-terminus and C-terminus assumed)	0	0	abolished	> 5
CC[C@H](C)[C@@H]1NC(=O)[C@H](Cc2c[nH]cn2)NC(=O)[C@H](Cc2c[nH]c3ccccc23)NC(=O)[C@H](CO)NC(=O)CNC(=O)[C@H](CC(N)=O)NC(=O)[C@H]([C@@H](C)O)NC(=O)[C@H](CC(N)=O)NC(=O)[C@H](C)NC(=O)[C@H](C)NC(=O)[C@H](C)NC(=O)[C@@H](NC(=O)[C@H](CCCCN)NC(=O)[C@H](CCCCN)NC(C)=O)CSSC[C@@H](C(N)=O)NC1=O [C-epitope I mutant I] (Ac-KKCAAANTNGSWHIC-NH2; disulfide 3-15; N-terminus and C-terminus assumed)	1.22e+06 s⁻¹	0.553	–	–
CC[C@H](C)[C@H](NC(=O)[C@H](Cc1c[nH]cn1)NC(=O)[C@H](Cc1c[nH]c2ccccc12)NC(=O)[C@H](CO)NC(=O)CNC(=O)[C@H](CC(N)=O)NC(=O)[C@@H](NC(=O)[C@H](CC(N)=O)NC(=O)[C@@H](NC(=O)[C@H](CC(C)C)NC(=O)[C@H](CCC(N)=O)NC(=O)[C@H](CSC)NC(=O)[C@H](CCCCN)NC(=O)[C@H](CCCCN)NC(C)=O)[C@@H](C)CC)[C@@H](C)O)C(=O)N[C@@H](CSC)C(N)=O [L-epitope I] (Ac-KKC(Me)QLINTNGSWHIC(Me)-NH2; N-terminus and C-terminus assumed)	0	0	–	> 5
